Data set [1] can be described thus: Microsomal stability assay, human liver microsomes. In kind it is in vitro ADME. Conditions: for T1/2 in human liver microsomes: 0.5 μM compound, 1 mg/mL microsomal protein; for Fold improvement of metabolic stability in human microsomes: compared to parent SMART compound. (Microsomes from liver hold many membrane-bound enzymes, among them those of drug oxidation.)

The nature of data set [2]: Microsomal stability assay, mouse liver microsomes. Type of data set: in vitro ADME. Conditions: 0.5 μM compound, 1 mg/mL microsomal protein.
Data set [3] can be described thus: Microsomal stability assay, rat liver microsomes. Type of data set: in vitro ADME. Conditions: 0.5 μM compound, 1 mg/mL microsomal protein.
The next data set deals with Bovine brain tubulin (Bos taurus, UniProt P81947+Q6B856). Nature of the data set: In vitro tubulin polymerization assay. Conditions: for Inhibition of tubulin polymerization: 20 min incubation, compared to vehicle. In kind it is biochemical.
Sequence of Bovine brain tubulin (Q6B856 whole entry): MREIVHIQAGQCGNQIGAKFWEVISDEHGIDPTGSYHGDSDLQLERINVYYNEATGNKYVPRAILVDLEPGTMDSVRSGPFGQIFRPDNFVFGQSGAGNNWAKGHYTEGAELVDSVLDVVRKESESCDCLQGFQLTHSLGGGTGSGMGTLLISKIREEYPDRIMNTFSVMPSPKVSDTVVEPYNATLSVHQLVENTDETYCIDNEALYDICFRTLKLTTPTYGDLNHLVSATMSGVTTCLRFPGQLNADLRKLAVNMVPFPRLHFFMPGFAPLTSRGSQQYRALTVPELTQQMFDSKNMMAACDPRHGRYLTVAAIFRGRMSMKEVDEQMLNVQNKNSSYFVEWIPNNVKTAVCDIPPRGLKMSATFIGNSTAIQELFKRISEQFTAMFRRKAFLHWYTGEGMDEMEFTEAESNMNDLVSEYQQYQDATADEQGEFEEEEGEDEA
Sequence of Bovine brain tubulin (P81947 whole entry): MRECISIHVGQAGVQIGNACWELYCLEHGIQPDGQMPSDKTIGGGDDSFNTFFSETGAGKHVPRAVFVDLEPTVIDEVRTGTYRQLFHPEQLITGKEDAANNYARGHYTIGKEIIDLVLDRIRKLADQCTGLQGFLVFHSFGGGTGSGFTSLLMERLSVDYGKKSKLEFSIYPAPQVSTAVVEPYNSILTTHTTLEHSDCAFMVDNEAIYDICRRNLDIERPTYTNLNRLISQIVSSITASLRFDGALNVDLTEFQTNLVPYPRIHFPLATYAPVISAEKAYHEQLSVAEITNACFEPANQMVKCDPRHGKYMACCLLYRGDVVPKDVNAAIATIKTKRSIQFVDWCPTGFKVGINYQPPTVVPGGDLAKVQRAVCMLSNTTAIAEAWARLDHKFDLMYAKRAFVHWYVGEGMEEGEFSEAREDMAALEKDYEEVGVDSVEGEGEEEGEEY
Data set [4] can be described thus: Metabolite identification in human liver microsomes. Type of data set: in vitro ADME. Particulars: 50 μM compound, 1 mg/mL microsomal protein, high resolution MS.
For data set [5] the following is noted: cited from earlier work.
For data set [6] the following is noted: cited from earlier work. This is another data set of the same source.
In a further data set the test system is prostate cancer cells. Nature of the data set: Antiproliferative activity, prostate cancer cells overall. In kind it is cell-based, human. Conditions: compared to parent PAT compound.
Data set [7] can be described thus: Microsomal stability, over the tested liver microsome species. Type of data set: in vitro ADME. Particulars: mouse, rat.
For the next data set, the system named is LNCaP. Nature of the data set: Antiproliferative SRB assay, LNCaP prostate cancer cells. In kind it is cell-based, human. Conditions: compared to SMART compound 10 and 4.
The next data set concerns A375. Nature of the data set: Antiproliferative SRB assay, A375 melanoma cells. Type of data set: cell-based. Particulars: compared to SMART compound 10 and 4. Background: The SRB assay estimates cell density from bound dye.

Consider 7 compounds from paper PMC4161160 (Journal of Medicinal Chemistry, 2014).

Where “and” joins values, the source holds several entries; their conditions need not be identical. Equal values may be shown once. Read-outs that look alike come from different tables or passages of the source.

Regarding “2-(1H-Indol-3-yl)-4-(3,4,5-trimethoxyphenyl)-1H-benzo[d]imidazole [compound 4]”, in [1], the “T1/2 in human liver microsomes” value was 0.85 h and 0.845 ± 0.02 h; the “Fold improvement of metabolic stability in human microsomes” value is given as 2–3 fold. Also, in data set [2], the “T1/2 in mouse liver microsomes” value turned out to be 0.892 ± 0.04 h. In [3], the “T1/2 in rat liver microsomes” value was 1.2 ± 0.0767 h. For the same compound, at Bovine brain tubulin (5 μM), the “Inhibition of tubulin polymerization” value was found to be 30%. Besides, on Bovine brain tubulin (10 μM), the “Inhibition of tubulin polymerization” value is recorded as 60%. Besides, the “Major metabolites / metabolic pathway” value in data set [4] was “o-demethylation (M9) and monohydroxylation (M10) are the major products”.

`COc1cc(C(=O)c2csc(Nc3ccccc3)n2)cc(OC)c1OC` [PAT]: in data set [5], the Oral bioavailability is recorded as 21%. In data set [5] (reference not given), the “Oral bioavailability (F)” value is more than 30%.

Consider `COc1cc(C(=O)c2csc(-c3ccccc3)n2)cc(OC)c1OC` [SMART 10], for which the “T1/2 in mouse liver microsomes” value in data set [6] is “≪5 min”.

For `COc1cc(C(=O)c2csc(Nc3ccc4[nH]ccc4c3)n2)cc(OC)c1OC` [compound 33, (2-((1H-Indol-5-yl)amino)thiazol-4-yl)(3,4,5-trimethoxyphenyl)methanone], the “Fold change of IC50 on prostate cancer cells” value in the data set with prostate cancer cells is 2–3 fold.

For the compound “(4-(2-Aminoethyl)-3,5-dimethoxyphenyl)(2-phenylthiazol-4-yl)methanone [compound 18]”, in data set [1], the “T1/2 in human liver microsomes” value stood at 1.833 ± 0.0917 h. Further, in [7] (summary over human), the “T1/2 in the tested liver microsomes species” value was in the range of 1.83 to 3.75 h. Also, the “T1/2 in mouse liver microsomes” value in [2] amounted to 2.05 ± 0.128 h. In addition, in data set [3], the “T1/2 in rat liver microsomes” value is 3.75 ± 0.21 h. In addition, the “Major metabolites / metabolic pathway” value in [4] is “M6 (dealkylation) and M8 (ketone reduction) are the major metabolites”.

By half-life is commonly meant how long it takes for the measured level to halve. With `COCOc1c(OC)cc(C(=O)c2csc(-c3ccccc3)n2)cc1OC` [compound 15, (3,5-Dimethoxy-4-(methoxymethoxy)phenyl)(2-phenylthiazol-4-yl)methanone], in [7] (human, liver microsomes, pH 7.4), the half-life at 0.5 μM was less than 0.167 h. Moreover, the “Major metabolites / metabolic pathway” value in data set [4] was “removal of the MOM group to form M1 is the major metabolic pathway”.

Broadly, the inhibition is the share of the control response that was lost under treatment. For `COc1cc(-c2nccc3[nH]c(-c4ccc5[nH]ccc5c4)nc23)cc(OC)c1OC` [compound 7, 2-(1H-Indol-5-yl)-4-(3,4,5-trimethoxyphenyl)-1H-imidazo[4,5-c]pyridine], in data set [1], the “Fold improvement of metabolic stability in human microsomes” value is reported as 2–3 fold. Moreover, the “Fold improvement of IC50 against LNCaP” value in the data set on LNCaP is “at least 5 fold”. The “Fold improvement of IC50 against A375” value with A375 was “at least 5 fold”. Besides, the inhibition at 5 µM at Bovine brain tubulin (read-out: Inhibition of tubulin polymerization) was approximately 33%. In addition, in data set [4], the “Major metabolites / metabolic pathway” value was “M14 is the major metabolite”.
